Read-outs that look alike come from different tables or passages of the source. Non-standard residues stand in square brackets, D forms with d. Residues, ends and D or L forms follow the SMILES beside them. Phe(ol) = N[C@H](CO)Cc1ccccc1
Columns and labels:
Type in all cases: binding
XIAP-BIR2 = target: T1, XIAP-BIR2 (Homo sapiens, UniProt P98170, C202A/C213G); test: fluorescence polarization competition assay, XIAP-BIR2
T1 construct: X-IAP BIR2 (amino acid residues 124-240 with mutations C202A and C213G); made in house; host or cells: Escherichia coli BL21 (DE3)
Procedure: (§1) The apparent Kd values can be determined from the EC50 values.
(§2) The vectors pET15b-XIAPBIR2C202AC218G, pET15b-XIAPBIR3, and pET15b-MLIAPBIR were introduced into Escherichia coli strain BL21 (DE3). Overnight cultures were diluted 1:100 and grown at 30° C. in LB media with […] to an A600 of 0.5-0.7 with vigorous shaking. Isopropyl b-D-thiogalactoside (IPTG) was added to a final concentration of 1 mM and cultures were grown for 4 hours at 30° C. One litre of frozen cell pellet was resuspended in 100 ml Buffer A (50 mM Tris [pH 8.0], 300 mM NaCl, 5 mM b-mercaptoethanol, 0.5 mM PMSF, 2 mM benzamidine) with 5 mM imidazole and placed on ice for 30 minutes. Cells were lysed by homogenizing followed by repeated passes through a microfluidizer. Lysate was cleared by centrifugation at 15,000 rpm for 30 minutes. The supernatant was loaded onto a Ni-agarose column (Qiagen), washed with 10 column volumes Buffer A with 10 mM imidazole, and eluted with 10 column volumes Buffer A with 300 mM imidazole. Fractions containing BIR protein were pooled. Final concentrations of 5 mM DTT and 100 mM zinc acetate were added. The pool was concentrated and loaded on a Superdex 75™ (Pharmacia) sizing column. Protein eluted over one column volume into 50 mM Tris 8.0, 300 mM NaCl, 0.5 mM PMSF, 2 mM benzamidine, 5 mM DTT, 50 mM zinc acetate, 1 mM sodium azide. Fractions containing BIR protein were pooled and dialyzed against 4 changes of buffer containing 50 mM Tris (pH 8.0), 120 mM NaCl, 5 mM DTT, 0.5 mM PMSF, 2 mM benzamidine, 50 mM zinc acetate, 1 mM sodium azide. Protein was concentrated and stored at −80° C. for further characterization.
(§3) The apparent Kd values were determined from the EC50 values. […] Samples were read after a 10-minute incubation.

XIAP-BIR3 = target: T2, XIAP-BIR3 (Homo sapiens, UniProt P98170); test: fluorescence polarization competition assay, XIAP-BIR3
T2 construct: X-IAP BIR3 (amino acids residues 241-356); made in house; host or cells: Escherichia coli BL21 (DE3)
Procedure: as §1, §2, §3

ML-IAP-BIR = target: T3, ML-IAP-BIR (Homo sapiens, UniProt Q96CA5); test: fluorescence polarization competition assay, ML-IAP-BIR
T3 construct: made in house; host or cells: Escherichia coli BL21 (DE3)
T3 sequence (Q96CA5 63-179): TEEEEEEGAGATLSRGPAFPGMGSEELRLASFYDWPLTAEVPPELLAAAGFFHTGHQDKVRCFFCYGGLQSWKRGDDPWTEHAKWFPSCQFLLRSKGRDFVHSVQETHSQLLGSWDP
Procedure: as §1, §2, §3

[1] = Table 4, P4 amino acid/phenylethylamine scan, Hid-FAM probe

T2 sequence (P98170 241-356): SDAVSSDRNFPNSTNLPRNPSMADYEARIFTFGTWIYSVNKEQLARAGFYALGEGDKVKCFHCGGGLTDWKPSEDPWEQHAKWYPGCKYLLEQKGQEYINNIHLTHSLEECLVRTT
T1 sequence (P98170 124-240 C202A/C213G): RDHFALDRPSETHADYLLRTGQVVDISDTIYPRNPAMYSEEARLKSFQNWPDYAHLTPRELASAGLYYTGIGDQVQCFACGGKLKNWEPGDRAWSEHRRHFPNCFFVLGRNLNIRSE

Ki (ML-IAP-BIR; [1]) [nM] | Compound | further results
 | CC(C)[C@H](NC(=O)[C@H](C)NC(=O)[C@H](CCC(=O)O)NC(=O)[C@H](C)N)C(=O)N1CCC[C@H]1C(=O)N[C@@H](Cc1c[nH]c2ccccc12)C(=O)N[C@@H](CCCCN)C(=O)N[C@@H](CO)C(=O)N[C@@H](CCC(=O)O)C(=O)O | Ki (XIAP-BIR2): 3600 nM; Ki (XIAP-BIR3): > 64000 nM
 | CC(C)[C@H](NC(=O)[C@H](C)NC(=O)[C@H](CCC(N)=O)NC(=O)[C@H](C)N)C(=O)N[C@@H](C)C(=O)N[C@@H](Cc1c[nH]c2ccccc12)C(=O)N[C@@H](CCCCN)C(=O)N[C@@H](CO)C(=O)N[C@@H](CCC(=O)O)C(=O)O | Ki (ML-IAP-BIR): 7000 nM
 | CC(C)[C@H](NC(=O)[C@H](C)N)C(=O)NCC(=O)N[C@H](C(=O)N1CCC[C@H]1C(=O)N[C@@H](Cc1c[nH]c2ccccc12)C(=O)N[C@@H](CCCCN)C(=O)N[C@@H](CO)C(=O)N[C@@H](CCC(=O)O)C(=O)O)C(C)C | Ki (ML-IAP-BIR): 6000 nM
 | CC[C@H](C)[C@H](NC(=O)[C@H](Cc1c[nH]c2ccccc12)NC(=O)[C@@H]1CCCN1C(=O)[C@@H](NC(=O)[C@H](C)N)C(C)C)C(=O)NCC(=O)N[C@@H](CCCCN)C(=O)N[C@@H](CO)C(=O)N[C@@H](CCC(=O)O)C(=O)O | Ki (ML-IAP-BIR): 330 nM
90 | CC(C)[C@H](NC(=O)[C@H](C)N)C(=O)N1CCC[C@H]1C(=O)N[C@@H](Cc1ccccc1)C(=O)O [AVPF] (H-AVPF-OH; N-terminus assumed) | 
330 | CC[C@H](C)[C@H](NC(=O)[C@@H]1CCCN1C(=O)[C@@H](NC(=O)[C@H](C)N)C(C)C)C(=O)O [AVPI] | 
1500 | CC(C)[C@H](NC(=O)[C@H](C)N)C(=O)N1CCC[C@H]1C(=O)N[C@@H](CO)[C@@H](O)c1ccccc1 [AVPX25] | 
1900 | CC(C)[C@H](NC(=O)[C@H](C)N)C(=O)N1CCC[C@H]1C(=O)NCCc1cccc(C(F)(F)F)c1 [AVPX26] | 
410 | CC(C)[C@H](NC(=O)[C@H](C)N)C(=O)N1CCC[C@H]1C(=O)N[C@H](CO)[C@H](O)c1ccccc1 [AVPX27] | 
850 | CC(C)[C@H](NC(=O)[C@H](C)N)C(=O)N1CCC[C@H]1C(=O)N[C@@H]1C[C@H]1c1ccccc1 [AVPX28a] | Ki (XIAP-BIR3; [1]): 7600 nM
1000 | CC(C)[C@H](NC(=O)[C@H](C)N)C(=O)N1CCC[C@H]1C(=O)N[C@H]1C[C@@H]1c1ccccc1 [AVPX28b] | Ki (XIAP-BIR3; [1]): 1400 nM
270 | CC(CNC(=O)[C@@H]1CCCN1C(=O)[C@@H](NC(=O)[C@H](C)N)C(C)C)c1ccccc1 (some centres unmarked) [AVPX31] | 
90 | CC(C)[C@H](NC(=O)[C@H](C)N)C(=O)N1CCC[C@H]1C(=O)N[C@H](CO)Cc1ccccc1 [AVPX32] (H-AVP[Phe(ol)]; N-terminus assumed) | Ki (XIAP-BIR2; [1]): 441000 nM; Ki (XIAP-BIR3; [1]): 390 nM
310 | CC(C)[C@H](NC(=O)[C@H](C)N)C(=O)N1CCC[C@H]1C(=O)NC[C@H](O)c1ccccc1 [AVPX33] | 
780 | CCOc1cccc(CCNC(=O)[C@@H]2CCCN2C(=O)[C@@H](NC(=O)[C@H](C)N)C(C)C)c1 [AVPX34] | 
1300 | COc1ccc(Br)cc1CCNC(=O)[C@@H]1CCCN1C(=O)[C@@H](NC(=O)[C@H](C)N)C(C)C [AVPX36] | 
870 | CC(C)[C@H](NC(=O)[C@H](C)N)C(=O)N1CCC[C@H]1C(=O)NCCc1cccc(F)c1 [AVPX37] | 

Compound | Ki (ML-IAP-BIR; [1]) [nM] | further results
CC(C)[C@H](NC(=O)[C@H](C)N)C(=O)N1CCC[C@H]1C(=O)NCC(c1ccccc1)c1ccccc1 [AVPX24] | 30 | 
